# Experimental data reported in the supplement of paper PMC6045584.
# ± gives the standard deviation of the averaged measurements.
# Key:
# [1] = compound: O=C(c1cc(Cc2n[nH]c(=O)c3ccccc23)ccc1F)N1CCN(C(=O)C2CC2)CC1 [OLAPARIB]; test: surviving fraction relative to DMSO-only wells; higher = less growth inhibition; settings: exposure time: 5 days
# Summary of the method: (§1)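 Tumour cell lines were grown to log phase and seeded at 250–500 cells per well in 384-well plates. They were exposed continuously to inhibitors at 0.5, 1, 5, 10, 50, 100, 500 and 1000 nM for five days, beginning 24 hours after seeding. Surviving fraction is CellTiter-Glo luminescence normalised to the median of DMSO-only wells.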
# [2] = compound: C[C@]12CC[C@H](O)CC1=CC[C@@H]1[C@@H]2CC[C@]2(C)C(c3cccnc3)=CC[C@@H]12 [ABIRATERONE]; test: as above; settings: exposure time: 5 days
# Summary of the method: as §1
Test System,surviving fraction ([1]; 0.5 nM),surviving fraction ([1]; 1 nM),surviving fraction ([1]; 5 nM),surviving fraction ([1]; 10 nM),surviving fraction ([1]; 50 nM),surviving fraction ([1]; 100 nM),surviving fraction ([1]; 500 nM),surviving fraction ([1]; 1000 nM),surviving fraction ([2]; 0.5 nM),surviving fraction ([2]; 1 nM),surviving fraction ([2]; 5 nM),surviving fraction ([2]; 10 nM),surviving fraction ([2]; 50 nM),surviving fraction ([2]; 100 nM),surviving fraction ([2]; 500 nM),surviving fraction ([2]; 1000 nM)
SG27 HEADNECK,1 ± 0.049,1.05 ± 0.14,0.969 ± 0.093,0.991 ± 0.1,0.916 ± 0.074,0.995 ± 0.092,0.981 ± 0.22,1.02 ± 0.11,1.09 ± 0.064,0.971 ± 0.11,1.05 ± 0.067,0.927 ± 0.039,0.867 ± 0.066,0.997 ± 0.08,0.957 ± 0.14,0.985 ± 0.07
SG28 HEADNECK,1.12 ± 0.13,0.982 ± 0.12,1.02 ± 0.09,0.952 ± 0.088,0.914 ± 0.13,0.887 ± 0.13,0.928 ± 0.024,0.926 ± 0.065,1.11 ± 0.046,1.08 ± 0.11,1.02 ± 0.048,1.04 ± 0.12,1.02 ± 0.18,1.07 ± 0.043,1.01 ± 0.066,1.04 ± 0.13
SG31 HEADNECK,1.17 ± 0.27,1.09 ± 0.061,1.02 ± 0.12,0.985 ± 0.16,0.932 ± 0.18,0.908 ± 0.13,0.946 ± 0.073,0.962 ± 0.073,1.21 ± 0.14,1.11 ± 0.19,1.09 ± 0.12,0.866 ± 0.035,1.06 ± 0.13,0.997 ± 0.03,1.13 ± 0.23,0.981 ± 0.065
SG32 HEADNECK,1.23 ± 0.41,1.43 ± 0.2,1.23 ± 0.4,1.24 ± 0.15,1.03 ± 0.054,1.05 ± 0.22,0.77 ± 0.042,0.795 ± 0.081,1.18 ± 0.12,1.29 ± 0.2,1.13 ± 0.2,1.22 ± 0.11,1.15 ± 0.05,1.17 ± 0.12,1.13 ± 0.16,1.21 ± 0.19
SG43 HEADNECK,1.18 ± 0.24,0.979 ± 0.16,0.835 ± 0.043,0.882 ± 0.095,1.19 ± 0.025,1.01 ± 0.059,0.982 ± 0.11,0.935 ± 0.042,1.23 ± 0.2,1.1 ± 0.39,0.922 ± 0.036,0.934 ± 0.21,1.02 ± 0.51,0.995 ± 0.12,0.967 ± 0.13,0.987 ± 0.2
SIHA CERVIX,0.988 ± 0.022,1.07 ± 0.13,1.02 ± 0.073,1.03 ± 0.044,0.967 ± 0.053,1.04 ± 0.061,0.91 ± 0.067,0.886 ± 0.061,1.16 ± 0.013,1.15 ± 0.016,1.18 ± 0.11,1.12 ± 0.086,1.18 ± 0.064,1.22 ± 0.046,1.27 ± 0.06,1.16 ± 0.056
SJSA1 BONE,1 ± 0.025,1.01 ± 0.045,1.03 ± 0.061,1.02 ± 0.066,1.01 ± 0.083,0.963 ± 0.024,0.931 ± 0.051,0.876 ± 0.039,1.04 ± 0.051,1.09 ± 0.086,1.13 ± 0.032,1.1 ± 0.026,1.11 ± 0.037,1.15 ± 0.031,1.1 ± 0.015,1.04 ± 0.073
SKBR3 BREAST,1.02 ± 0.1,1.05 ± 0.15,0.939 ± 0.12,1 ± 0.21,0.922 ± 0.14,0.935 ± 0.093,0.79 ± 0.13,0.813 ± 0.072,0.995 ± 0.11,1.07 ± 0.073,1.2 ± 0.17,0.924 ± 0.1,1.11 ± 0.18,1.14 ± 0.068,1.08 ± 0.1,0.918 ± 0.18
SNU475 LIVER,1 ± 0.079,0.957 ± 0.032,1 ± 0.039,0.994 ± 0.07,0.893 ± 0.059,0.8737 ± 0.0067,0.918 ± 0.013,0.838 ± 0.016,1.03 ± 0.024,1.07 ± 0.035,1.05 ± 0.035,1.06 ± 0.045,1.02 ± 0.03,1.02 ± 0.071,1 ± 0.085,1.04 ± 0.016
SUM44 BREAST,0.903 ± 0.012,0.911 ± 0.059,0.924 ± 0.083,0.909 ± 0.071,0.97 ± 0.068,0.958 ± 0.063,0.894 ± 0.066,0.861 ± 0.022,0.949 ± 0.017,0.962 ± 0.057,1.02 ± 0.037,0.991 ± 0.045,1.06 ± 0.034,1.12 ± 0.07,1.1 ± 0.047,1.03 ± 0.031
SUM149 BREAST,0.951 ± 0.21,0.911 ± 0.082,0.927 ± 0.11,0.84 ± 0.01,0.722 ± 0.054,0.624 ± 0.059,0.511 ± 0.084,0.336 ± 0.051,1.05 ± 0.046,1.006 ± 0.01,1.07 ± 0.014,1.04 ± 0.038,0.947 ± 0.085,0.872 ± 0.1,0.902 ± 0.069,0.892 ± 0.071
SUM149.B1*.S BREAST,1.092 ± 0.0038,1.09 ± 0.094,1.08 ± 0.031,1.05 ± 0.022,1.03 ± 0.015,0.962 ± 0.035,1.04 ± 0.011,0.911 ± 0.04,1.11 ± 0.055,1.11 ± 0.047,1.2 ± 0.05,1.12 ± 0.071,1.21 ± 0.062,1.21 ± 0.074,1.19 ± 0.028,1.2 ± 0.078
SUM159 BREAST,1.12 ± 0.075,1.05 ± 0.066,1.084 ± 0.01,1.06 ± 0.016,1.05 ± 0.051,0.948 ± 0.24,1.02 ± 0.079,0.993 ± 0.091,1.11 ± 0.053,0.994 ± 0.16,0.99 ± 0.17,0.952 ± 0.21,1.11 ± 0.05,0.963 ± 0.24,1.03 ± 0.15,0.961 ± 0.2
SYO1 SYNOVIAL,0.992 ± 0.055,0.95 ± 0.053,0.924 ± 0.045,0.881 ± 0.06,0.724 ± 0.025,0.6731 ± 0.0055,0.564 ± 0.044,0.429 ± 0.027,1.01 ± 0.048,1.03 ± 0.02,1.03 ± 0.014,1.01 ± 0.013,1.031 ± 0.0036,1.03 ± 0.029,1.01 ± 0.018,1.01 ± 0.062
T47D BREAST,1.01 ± 0.04,1 ± 0.052,0.986 ± 0.011,0.982 ± 0.027,0.997 ± 0.061,0.9606 ± 0.0086,0.971 ± 0.05,0.864 ± 0.023,1.04 ± 0.048,1.08 ± 0.031,1.05 ± 0.018,1.08 ± 0.063,1.18 ± 0.068,1.14 ± 0.022,1.1 ± 0.069,1.13 ± 0.051
U2OS BONE,1.08 ± 0.045,1.05 ± 0.069,1.06 ± 0.044,1.07 ± 0.04,1.05 ± 0.055,1.01 ± 0.046,0.945 ± 0.018,0.877 ± 0.032,1.04 ± 0.05,1.03 ± 0.029,1.1 ± 0.035,1.096 ± 0.004,1.19 ± 0.031,1.08 ± 0.022,1.1 ± 0.016,1.09 ± 0.032
VCAP PROSTATE,1.17 ± 0.067,1.1 ± 0.074,1.17 ± 0.089,1.04 ± 0.13,1.08 ± 0.09,1.09 ± 0.12,1.03 ± 0.089,0.922 ± 0.074,1.13 ± 0.024,1.07 ± 0.083,1.19 ± 0.049,1.12 ± 0.073,1.22 ± 0.1,1.18 ± 0.18,1.02 ± 0.1,0.967 ± 0.11
VP229 BREAST,1.07 ± 0.11,1.08 ± 0.13,1.01 ± 0.021,1.12 ± 0.19,0.886 ± 0.071,0.788 ± 0.068,0.879 ± 0.12,0.821 ± 0.046,1.03 ± 0.052,0.99 ± 0.032,0.997 ± 0.1,1.09 ± 0.1,1.03 ± 0.013,1.04 ± 0.03,1.26 ± 0.16,1.11 ± 0.16
YAMATO SYNOVIAL,1.38 ± 0.12,1.4 ± 0.08,1.49 ± 0.062,1.37 ± 0.11,0.894 ± 0.084,0.871 ± 0.092,0.819 ± 0.02,0.738 ± 0.044,1.37 ± 0.033,1.52 ± 0.058,1.48 ± 0.12,1.45 ± 0.14,1.39 ± 0.14,1.46 ± 0.078,1.38 ± 0.025,1.22 ± 0.14
ZR751 BREAST,1.11 ± 0.17,1.08 ± 0.13,1.08 ± 0.35,1.01 ± 0.1,1.1 ± 0.023,1.11 ± 0.086,1.14 ± 0.089,1.02 ± 0.14,1.1 ± 0.11,1.18 ± 0.16,1.15 ± 0.1,1.19 ± 0.099,1.09 ± 0.19,1.08 ± 0.17,0.854 ± 0.13,0.731 ± 0.21
